Experimental data taken from US20160050935A1, “METHOD FOR CONTROLLING PARTICLE SIZE OF SILVER PARTICLES, SILVER PARTICLES, ANTIMICROBIAL AGENT CONTAINING SLIVER PARTICLES, AND USE THEREOF” (SOFSERA CORPORATION, priority 2013, published 2016).

Tested on: Escherichia coli (Gram-negative bacteria)
Assay: Antibacterial test of silver particles-2 (bacteria count in tube 1 over time)
Assay type: cell-based
Procedure: A test similar to that in <5. Antibacterial test of silver particles-1> was carried out with use of Escherichia coli (Gram-negative bacteria), which is one of model organisms and by which bacteria are typified. Note that the test was carried out by a method similar to that in <5. Antibacterial test of silver particles-1>, except that a kind of the bacteria used in the test was changed. Therefore, the method of the test will not be described here, and only results of the test will be described.
FIG. 10 illustrates results of the test carried out with use of “1 mM CDT-Ag,” “5 mM CDT-Ag,” and “10 mM CDT-Ag.” More specifically, FIG. 10 illustrates results of, “0 (zero) h,” “0.5 h,” “1 (one) h,” and “2 h” after the silver particles were mixed with the bacteria, (i) taking out an LB culture medium from each of tubes 1 through 8 stored in an incubator and (ii) carrying out an operation K), that is, a result of incubating the bacteria at 37° C. for 24 hours by storing a petri dish, prepared in the operation K), in the incubator.

Structure (SMILES): O=C(O)CCCCCCCCCCS [Free CDT, 10-carboxy-1-decanthiol]
- bacteria count in the tube 1 (count at 0 h = 1) (0 h (set to 1 by assumption)): 1
- bacteria count in the tube 1 (count at 0 h = 1) (0.5 h after mixing): 1
- bacteria count in the tube 1 (count at 0 h = 1) (1 h after mixing): 1
- bacteria count in the tube 1 (count at 0 h = 1) (2 h after mixing): 1
- antibacterial activity (in words, from FIG. 10 and Table 3): did not have antibacterial activity
